The target of one assay is rat TAAR1 (Rattus norvegicus (Rat), UniProt Q923Y9). Put plainly: Radioligand binding assay on rat TAAR1. The settings on record: for Ki: read-out: Ki(μM) rat, rat TAAR1, HEK-293 membranes, second value of cell pair mouse/rat.
The next assay addresses mouse TAAR1 (Mus musculus (Mouse), UniProt Q923Y8). Put plainly: Radioligand binding assay on mouse TAAR1.

Each structure is given as a SMILES string. Some results are limits rather than exact numbers.

This is an account of results in patent US10023559B2 (Hoffmann-La Roche Inc., priority 2014, dated 2018).

Chain of mouse TAAR1 (Q923Y8 whole entry): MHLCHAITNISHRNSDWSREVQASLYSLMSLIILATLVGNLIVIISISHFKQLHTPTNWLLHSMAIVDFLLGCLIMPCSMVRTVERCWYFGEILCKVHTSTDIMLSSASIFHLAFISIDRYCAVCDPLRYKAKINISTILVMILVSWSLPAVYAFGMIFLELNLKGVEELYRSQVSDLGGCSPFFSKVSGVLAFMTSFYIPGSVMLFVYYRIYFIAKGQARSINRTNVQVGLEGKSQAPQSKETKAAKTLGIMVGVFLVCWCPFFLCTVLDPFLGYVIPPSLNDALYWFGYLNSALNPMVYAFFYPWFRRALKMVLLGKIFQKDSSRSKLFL
Chain of rat TAAR1 (Q923Y9 whole entry): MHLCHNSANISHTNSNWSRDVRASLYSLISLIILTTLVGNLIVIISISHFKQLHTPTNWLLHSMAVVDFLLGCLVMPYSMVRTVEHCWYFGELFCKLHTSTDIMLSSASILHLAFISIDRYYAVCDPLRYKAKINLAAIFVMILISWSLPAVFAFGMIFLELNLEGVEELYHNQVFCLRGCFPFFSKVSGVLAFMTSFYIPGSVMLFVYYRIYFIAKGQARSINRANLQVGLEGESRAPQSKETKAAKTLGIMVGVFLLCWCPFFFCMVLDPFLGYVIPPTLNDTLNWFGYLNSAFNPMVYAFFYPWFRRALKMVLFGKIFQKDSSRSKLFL
Method for mouse TAAR1: (§1) Membrane Preparation and Radioligand Binding.
HEK-293 cells stably expressing mouse TAAR1 were maintained at 37° C. and 5% CO2 in DMEM high glucose medium, containing fetal calf serum (10%, heat inactivated for 30 min at 56° C.), penicillin/streptomycin (1%), and 375 μg/ml geneticin (Gibco). Cells were released from culture flasks using trypsin/EDTA, harvested, washed twice with ice-cold PBS (without Ca^2+ and Mg^2+), pelleted at 1,000 rpm for 5 min at 4° C., frozen and stored at −80° C. Frozen pellets were suspended in 20 ml HEPES-NaOH (20 mM, pH 7.4) containing 10 mM EDTA and homogenized with a Polytron (PT 6000, Kinematica) at 14,000 rpm for 20 s. The homogenate was centrifuged at 48,000×g for 30 min at 4° C. Subsequently, the supernatant was removed and discarded, and the pellet resuspended in 20 ml HEPES-NaOH (20 mM, pH 7.4) containing 0.1 mM EDTA using the Polytron (20 s at 14,000 rpm). This procedure was repeated and the final pellet resuspended in HEPES-NaOH containing 0.1 mM EDTA and homogenized using the Polytron. Typically, aliquots of 2 ml membrane portions were stored at −80° C. With each new membrane batch the dissociation constant (Kd) was determined via a saturation curve. […] Nonspecific binding was defined as the amount of ^3[H]—(S)-4-[(ethyl-phenyl-amino)-methyl]-4,5-dihydro-oxazol-2-ylamine bound in the presence of 10 M unlabeled ligand. All compounds were tested at a broad range of concentrations (10 pM to 10 μM) in duplicates. […] The 96 deep well plates were incubated for 1 hr at 4° C. Incubations were terminated by rapid filtration through Unifilter-96 plates (Packard Instrument Company) and glass filters GF/C (Perkin Elmer) presoaked for 1 hr in polyethylenimine (0.3%) and washed 3 times with 1 ml of cold binding buffer. After addition of 45 μl of Microscint 40 (PerkinElmer) the Unifilter-96 plate was sealed and after 1 hr the radioactivity counted using a TopCount Microplate Scintillation Counter (Packard Instrument Company).
Method for rat TAAR1: as §1
HEK-293 cells stably expressing rat TAAR1 were maintained at 37° C. and 5% CO2 in DMEM high glucose medium, containing fetal calf serum (10%, heat inactivated for 30 min at 56° C.), penicillin/streptomycin (1%), and 375 μg/ml geneticin (Gibco). Cells were released from culture flasks using trypsin/EDTA, harvested, washed twice with ice-cold PBS (without Ca^2+ and Mg^2+), pelleted at 1,000 rpm for 5 min at 4° C., frozen and stored at −80° C. Frozen pellets were suspended in 20 ml HEPES-NaOH (20 mM, pH 7.4) containing 10 mM EDTA and homogenized with a Polytron (PT 6000, Kinematica) at 14,000 rpm for 20 s. The homogenate was centrifuged at 48,000×g for 30 min at 4° C. Subsequently, the supernatant was removed and discarded, and the pellet resuspended in 20 ml HEPES-NaOH (20 mM, pH 7.4) containing 0.1 mM EDTA using the Polytron (20 s at 14,000 rpm). This procedure was repeated and the final pellet resuspended in HEPES-NaOH containing 0.1 mM EDTA and homogenized using the Polytron. Typically, aliquots of 2 ml membrane portions were stored at −80° C. With each new membrane batch the dissociation constant (Kd) was determined via a saturation curve. […] Nonspecific binding was defined as the amount of [H]—(S)-4-[(ethyl-phenyl-amino)-methyl]-4,5-dihydro-oxazol-2-ylamine bound in the presence of 10 M unlabeled ligand. All compounds were tested at a broad range of concentrations (10 pM to 10 μM) in duplicates. […] The 96 deep well plates were incubated for 1 hr at 4° C. Incubations were terminated by rapid filtration through Unifilter-96 plates (Packard Instrument Company) and glass filters GF/C (Perkin Elmer) presoaked for 1 hr in polyethylenimine (0.3%) and washed 3 times with 1 ml of cold binding buffer. After addition of 45 μl of Microscint 40 (PerkinElmer) the Unifilter-96 plate was sealed and after 1 hr the radioactivity counted using a TopCount Microplate Scintillation Counter (Packard Instrument Company).

As a reminder, the Ki is the equilibrium dissociation constant of an inhibitor or competing ligand from its target. As for `CO[C@H]1CN[C@@H]1Cc1ccccc1` [Example 101, (2R,3S)-2-benzyl-3-methoxyazetidine], the Ki was 2.04 µM on rat TAAR1 and 2610 nM on mouse TAAR1.
`CCc1n[nH]c(C(=O)Nc2ccc(C[C@@H]3NC[C@@H]3F)cc2)c1C` [Example 102, 3-ethyl-N-(4-(((2S,3S)-3-fluoroazetidin-2-yl)methyl)phenyl)-4-methyl-1H-pyrazole-5-carboxamide]: the Ki on rat TAAR1 is 0.0875 µM; at mouse TAAR1 it was 14.8 nM.
With `CCc1n[nH]c(C(=O)Nc2ccc(C[C@H]3NC[C@H]3F)cc2)c1C` [Example 103, 3-ethyl-N-(4-(((2R,3R)-3-fluoroazetidin-2-yl)methyl)phenyl)-4-methyl-1H-pyrazole-5-carboxamide], the results for the Ki on rat TAAR1 and at mouse TAAR1 were 1.27 µM and 45.6 nM, respectively.
In the same order, the values of `O=C(Nc1ccc(C[C@@H]2NC[C@@H]2F)cc1)c1ccnc(C(F)(F)F)c1` [Example 104, N-(4-(((2S,3S)-3-fluoroazetidin-2-yl)methyl)phenyl)-2-(trifluoromethyl)isonicotinamide] are 0.0231 µM and 10.8 nM.
As to `O=C(Nc1ccc(CC2(F)CNC2)cc1)Nc1ccc(C(F)(F)F)cc1` [Example 105, 1-[4-[(3-fluoroazetidin-3-yl)methyl]phenyl]-3-[4-(trifluoromethyl)phenyl]urea], the Ki on rat TAAR1 came to 0.0016 µM; at mouse TAAR1 it was 1.9 nM.
Take `COc1ccc(NC(=O)Nc2ccc(CC3(F)CNC3)cc2)cc1` [Example 106, 1-[4-[(3-fluoroazetidin-3-yl)methyl]phenyl]-3-(4-methoxyphenyl)urea]: the Ki on rat TAAR1 was 0.0239 µM; on mouse TAAR1, 1.9 nM.
For `O=C(Nc1ccc(CC2(F)CNC2)cc1)Nc1cccc(Cl)c1` [Example 107, 1-(3-chlorophenyl)-3-[4-[(3-fluoroazetidin-3-yl)methyl]phenyl]urea], the values for the Ki at rat TAAR1 and on mouse TAAR1 were 0.0026 µM and 2.5 nM, respectively.
Take `COc1ccc(NC(=O)Nc2ccc(OC3CNC3)cc2)cc1` [Example 108, 1-[4-(azetidin-3-yloxy)phenyl]-3-(4-methoxyphenyl)urea]: the figures for the Ki on rat TAAR1 and at mouse TAAR1 were 0.0269 µM and 108 nM, respectively.
For `O=C(Nc1ccc(OC2CNC2)cc1)Nc1cccc(Cl)c1` [Example 109, 1-[4-(azetidin-3-yloxy)phenyl]-3-(3-chlorophenyl)urea], the Ki is 0.003 µM at rat TAAR1 and 4.6 nM at mouse TAAR1.
Take `O=C(Nc1ccc(SC2CNC2)cc1)Nc1ccc(C(F)(F)F)cc1` [Example 110, 1-[4-(azetidin-3-ylsulfanyl)phenyl]-3-[4-(trifluoromethyl)phenyl]urea]: the Ki turned out to be 0.0081 µM on rat TAAR1 and 13.1 nM on mouse TAAR1.
For `COc1ccc(NC(=O)Nc2ccc(SC3CNC3)cc2)cc1` [Example 111, 1-[4-(azetidin-3-ylsulfanyl)phenyl]-3-(4-methoxyphenyl)urea], the figures for the Ki at rat TAAR1 and on mouse TAAR1 were 0.139 µM and 161 nM, respectively.
Turning to `O=C(Nc1ccc(SC2CNC2)cc1)Nc1cccc(Cl)c1` [Example 112, 1-[4-(azetidin-3-ylsulfanyl)phenyl]-3-(3-chlorophenyl)urea], the Ki at rat TAAR1 turned out to be 0.0111 µM; on mouse TAAR1, 11.1 nM.
Take `O=C(Nc1ccc(CC2CNC2)cc1)Nc1ccc(C(F)(F)F)cc1` [Example 113, 1-[4-(azetidin-3-ylmethyl)phenyl]-3-[4-(trifluoromethyl)phenyl]urea]: the Ki at rat TAAR1 amounted to 0.0042 µM; on mouse TAAR1, 8.7 nM.
In the same order, the values of `COc1ccc(NC(=O)Nc2ccc(CC3CNC3)cc2)cc1` [Example 114, 1-[4-(azetidin-3-ylmethyl)phenyl]-3-(4-methoxyphenyl)urea] are 0.156 µM and 160 nM.
In the case of `O=C(Nc1ccc(CC2CNC2)cc1)Nc1cccc(Cl)c1` [Example 115], the values for the Ki on rat TAAR1 and at mouse TAAR1 were 0.0138 µM and 27.2 nM, respectively.
`O=C(Nc1ccc(C=C2CNC2)cc1)Nc1ccc(C(F)(F)F)cc1` [Example 116, 1-[4-(azetidin-3-ylidenemethyl)phenyl]-3-[4-(trifluoromethyl)phenyl]urea]: the inhibition constant Ki on rat TAAR1 worked out at 0.0016 µM; at mouse TAAR1, 3.7 nM.
For `COc1ccc(NC(=O)Nc2ccc(C=C3CNC3)cc2)cc1` [Example 117, 1-[4-(azetidin-3-ylidenemethyl)phenyl]-3-(4-methoxyphenyl)urea], the Ki came to 0.0154 µM at rat TAAR1 and 27.7 nM on mouse TAAR1.
Regarding `O=C(Nc1ccc(C=C2CNC2)cc1)Nc1cccc(Cl)c1` [Example 118, 1-[4-(azetidin-3-ylidenemethyl)phenyl]-3-(3-chlorophenyl)urea], the Ki on rat TAAR1 was 0.0021 µM; at mouse TAAR1, 3.8 nM.
The corresponding values for `Cc1cc(C(=O)Nc2ccc(C[C@H]3NC[C@H]3F)cc2)nc(C(F)(F)F)n1` [Example 119, N-(4-(((2R,3R)-3-fluoroazetidin-2-yl)methyl)phenyl)-6-methyl-2-(trifluoromethyl)pyrimidine-4-carboxamide] are 1.18 µM and 336 nM.
As to `COc1cc(C(=O)Nc2ccc(C[C@H]3NC[C@H]3F)cc2)ccn1` [Example 120, N-(4-(((2R,3R)-3-fluoroazetidin-2-yl)methyl)phenyl)-2-methoxyisonicotinamide], the Ki on rat TAAR1 is over 1.5 µM; at mouse TAAR1, 10.3 nM.
As for `O=C(Nc1ccc(C[C@H]2NC[C@H]2F)cc1)c1ccnc(C(F)(F)F)c1` [Example 121, N-(4-(((2R,3R)-3-fluoroazetidin-2-yl)methyl)phenyl)-2-(trifluoromethyl)isonicotinamide], the Ki on rat TAAR1 was 0.809 µM; at mouse TAAR1 it was 7 nM.
As for `CCOc1ccc(C(=O)Nc2ccc(C[C@H]3NC[C@H]3F)cc2)cn1` [Example 122, 6-ethoxy-N-(4-(((2R,3R)-3-fluoroazetidin-2-yl)methyl)phenyl)nicotinamide], the values for the Ki on rat TAAR1 and at mouse TAAR1 were 1.16 µM and 9.7 nM, respectively.
For the compound `O=C(Nc1ccc(C[C@H]2NC[C@H]2F)cc1)c1cnc(C(F)(F)F)nc1` [Example 123, N-(4-(((2R,3R)-3-fluoroazetidin-2-yl)methyl)phenyl)-2-(trifluoromethyl)pyrimidine-5-carboxamide], the Ki on rat TAAR1 was 0.61 µM; on mouse TAAR1, 23.2 nM.
For `O=C(Nc1ccc(C[C@H]2NC[C@H]2F)cc1)c1cnc(C2CC2)nc1` [Example 124, 2-cyclopropyl-N-(4-(((2R,3R)-3-fluoroazetidin-2-yl)methyl)phenyl)pyrimidine-5-carboxamide], the Ki on rat TAAR1 was over 1.5 µM; at mouse TAAR1 it was 55.4 nM.
For `CC(C)c1cc(C(=O)Nc2ccc(C[C@H]3NC[C@H]3F)cc2)[nH]n1` [Example 125, N-(4-(((2R,3R)-3-fluoroazetidin-2-yl)methyl)phenyl)-3-isopropyl-1H-pyrazole-5-carboxamide], the Ki at rat TAAR1 amounted to 0.466 µM; at mouse TAAR1, 16 nM.
Consider `Cc1cc(C(=O)Nc2ccc(C[C@@H]3NC[C@@H]3F)cc2)nc(C(F)(F)F)n1` [Example 126, N-(4-(((2S,3S)-3-fluoroazetidin-2-yl)methyl)phenyl)-6-methyl-2-(trifluoromethyl)pyrimidine-4-carboxamide], for which the Ki was determined as 0.0224 µM on rat TAAR1 and 22.9 nM at mouse TAAR1.
As for `COc1cc(C(=O)Nc2ccc(C[C@@H]3NC[C@@H]3F)cc2)ccn1` [Example 127, N-(4-(((2S,3S)-3-fluoroazetidin-2-yl)methyl)phenyl)-2-methoxyisonicotinamide], the Ki at rat TAAR1 is 0.133 µM; at mouse TAAR1, 3.8 nM.
The corresponding values for `CCOc1ccc(C(=O)Nc2ccc(C[C@@H]3NC[C@@H]3F)cc2)cn1` [Example 128, 6-ethoxy-N-(4-(((2S,3S)-3-fluoroazetidin-2-yl)methyl)phenyl)nicotinamide] are 0.0204 µM and 2.3 nM.
Regarding `O=C(Nc1ccc(C[C@@H]2NC[C@@H]2F)cc1)c1cnc(C2CC2)nc1` [Example 129, 2-cyclopropyl-N-(4-(((2S,3S)-3-fluoroazetidin-2-yl)methyl)phenyl)pyrimidine-5-carboxamide], the Ki stood at 0.055 µM on rat TAAR1 and 8.9 nM on mouse TAAR1.
The corresponding values for `O=C(Nc1ccc(C[C@@H]2NC[C@@H]2F)cc1)c1cnc(C(F)(F)F)nc1` [Example 130, N-(4-(((2S,3S)-3-fluoroazetidin-2-yl)methyl)phenyl)-2-(trifluoromethyl)pyrimidine-5-carboxamide] are 0.0156 µM and 28.2 nM.
As to `CC(C)c1cc(C(=O)Nc2ccc(C[C@@H]3NC[C@@H]3F)cc2)n(C)n1` [Example 131, N-(4-(((2S,3S)-3-fluoroazetidin-2-yl)methyl)phenyl)-3-isopropyl-1-methyl-1H-pyrazole-5-carboxamide], the Ki came out at 0.126 µM on rat TAAR1 and 119 nM on mouse TAAR1.
The Kd is the equilibrium constant for the complex coming apart. In the case of `CCN(C[C@H]1COC(N)=N1)c1ccccc1` [reference compound], the Kd is about 2.3 nM on rat TAAR1 (read-out: dissociation constant (Kd) of the radioligand, rat TAAR1 membranes, saturation curve, usual value) and about 0.7 nM on mouse TAAR1 (read-out: dissociation constant (Kd) of the radioligand, mouse TAAR1 membranes, saturation curve, usual value).
